Source: patent US11613533B2, “Compounds useful for inhibiting RET kinase” (Eli Lilly and Company, priority 2020, dated 2023)

Tests used:
[1] = target: T1, V804M mutant RET kinase (N-terminal GST tagged recombinant human V804M mutant RET cytoplasmic domain, aa 658-end) (Homo sapiens, UniProt P07949, V804M); experiment: RET enzyme assay (HTRF KinEASE TK), V804M; format: biochemical; conditions: 1 mM ATP, 40 min incubation at 22° C.
T1 construct: human V804M mutant RET cytoplasmic domain (aa 658-end); GST (N); purchased Millipore 14-760
T1 sequence (P07949 658-1114 V804M limits assumed): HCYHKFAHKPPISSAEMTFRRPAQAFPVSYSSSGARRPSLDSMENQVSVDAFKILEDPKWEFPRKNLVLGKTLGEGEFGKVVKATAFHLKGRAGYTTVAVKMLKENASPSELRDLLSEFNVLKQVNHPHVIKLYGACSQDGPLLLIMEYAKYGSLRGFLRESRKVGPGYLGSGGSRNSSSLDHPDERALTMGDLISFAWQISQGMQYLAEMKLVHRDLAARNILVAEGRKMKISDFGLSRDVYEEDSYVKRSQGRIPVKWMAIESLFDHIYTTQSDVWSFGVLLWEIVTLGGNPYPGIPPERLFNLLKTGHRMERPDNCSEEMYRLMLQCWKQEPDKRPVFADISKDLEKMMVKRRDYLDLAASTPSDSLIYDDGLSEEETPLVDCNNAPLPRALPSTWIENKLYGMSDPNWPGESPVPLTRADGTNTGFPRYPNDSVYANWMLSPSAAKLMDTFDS
Procedure: Assay A: RET Enzyme Assay
Compounds of formulas I, II, or III are screened for their ability to inhibit wildtype, V804M, and G810S mutant RET kinase using CisBio's HTRF® KinEASE™TK assay technology. N-terminal GST tagged recombinant human RET cytoplasmic domain (aa 658-end) from Eurofins ([…]; Catalog No. 14-570M) or N-terminal GST tagged recombinant human V804M mutant RET cytoplasmic domain (aa 658-end) from Millipore (1.25 nM enzyme; Catalog No. 14-760) or N-Terminal GST-tagged recombinant human G810S (aa-658-end) (1.25 nM Enzyme; produced in insect cells) is incubated with 62.5 nM TK-substrate biotin (CisBio, part of Catalog No. 62TK0PEC) and 1 mM ATP along with test compound (0.4% final DMSO in the assay) in a 1× Cisbio enzymatic buffer consisting of […], 5 mM MgCl2, 0.04% BSA and 0.05% Tween20 in a volume of 10 μL. Compounds are typically prepared in a threefold serial dilution in DMSO and added to the assay to give the appropriate final concentration. After a 40-60 min (40 min for V804M, 60 min for WT and G810S) incubation at 22° C., the reaction is quenched by adding quench solution (10 μL) containing 7.8 nM Streptavidine-XL665 and 0.5×TK-ab-Cryptate in HTRF detection buffer (all from CisBio, part of Cat. No. 62TK0PEC). After a 60-80 min incubation (60 minutes for WT, 80 minutes for V804M and G810S) at 22° C., the extent of reaction is determined using a PHERastar plate reader via HTRF detection at excitation/emission 337/665 nm. Percent of inhibition is calculated with 0% inhibition referring to control conditions containing no compound (0.4% DMSO only) and 100% inhibition represented by conditions containing no enzyme. The % inhibition values are fit to a 4 parameter logistic curve, and the determined IC50 value is defined as the estimated concentration of inhibitor at the inflexion point of the fitted curve.

[2] = target: T2, KIF5B-RET mutant form V804M in HEK293 cells (Homo sapiens, UniProt P07949, V804M); experiment: RET cell assay (In-Cell Western, phospho-RET Y1062), V804M; format: cell-based; conditions: HEK293, doxycycline-induced KIF5B-RET V804M, 1 hr compound treatment; read-out: EC50, inhibition of intracellular autophosphorylation of RET at tyrosine 1062, V804M cells
T2 construct: expressed in transfected cells; host or cells: HEK293; the other entry of the earlier key: KIF5B (P33176, Kinesin-1 heavy chain)
T2 sequence (P07949 713-1063 V804M limits assumed): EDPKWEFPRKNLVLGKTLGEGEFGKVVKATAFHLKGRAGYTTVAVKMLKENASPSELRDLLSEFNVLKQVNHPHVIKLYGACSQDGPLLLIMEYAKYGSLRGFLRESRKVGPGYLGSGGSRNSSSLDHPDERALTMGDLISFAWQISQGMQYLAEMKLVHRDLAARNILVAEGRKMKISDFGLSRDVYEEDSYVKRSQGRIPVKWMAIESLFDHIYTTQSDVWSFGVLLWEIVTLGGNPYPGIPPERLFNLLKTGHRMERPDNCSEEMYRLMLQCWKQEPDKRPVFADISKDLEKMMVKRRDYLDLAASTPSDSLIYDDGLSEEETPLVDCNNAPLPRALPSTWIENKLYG
Procedure: Compounds of formulas (I), (II), and (III) are screened for their ability to inhibit the intracellular autophosphorylation of RET at tyrosine 1062 as detected by In-Cell Western. HEK293 cells containing a doxycycline-inducible plasmid for inducible expression of KIF5B-RET WT and RET mutant forms V804M and G810S are seeded at 25,000 cells/well into black poly-D-lysine pre-coated 384-well plates (Corning, Catalog No. 356697). Expression of KIF5B-RET is induced with doxycycline at 1 μg/mL and cells are incubated at 37° C. overnight. Compounds are prepared in a threefold serial dilution in DMSO before further diluting 1:100 in media prior to the addition to the cells (0.1% final DMSO concentration). Compound treatment is performed for 1 hr at 37° C. followed by fixation of cells with 4% formaldehyde for 20 min at RT and cell permeabilisation with ice-cold MeOH for 10 min at RT. Cells are incubated with Intercept® blocking buffer (Li—COR, Catalogue No. 927-70010) for 1 hr at RT. Incubation with primary antibodies against human phospho-RET (Y1062) (R&D, Catalogue No. AF5009, 1/250 dilution) and human glyceraldehyde-3-phosphate dehydrogenase (clone 6C5, Merck, Catalog No. MAB374, 1/1000 dilution) are performed overnight at 4° C. Incubation with secondary antibodies IRDye® 800CW goat anti-rabbit IgG (Li—COR, Catalogue No. 926-32211, 1/1000 dilution) and IRDye® 680CW goat anti-mouse IgG (Li—COR, Catalogue No. 926-68070, 1/1000 dilution) are performed for 1 hr at RT. All antibody dilutions are done in Intercept® blocking buffer containing 0.05% Tween20. After washing cells with PBS-T (Cell Signaling technology, Catalogue No. 9809), the images are acquired on a Li—COR Odyssey LCx at 700 and 800 nm. Percent of DMSO control is calculated with 100% signal referring to control conditions containing no compound (0.4% DMSO only) and 0% signal represented by conditions containing control compound. The % of DMSO control values are fit to a 4 parameter logistic curve, and the determined EC50 value is defined as the estimated concentration of inhibitor at the inflexion point of the fitted curve.

| IC50 [1] [nM] | EC50 [2] [nM] | SMILES |
| --- | --- | --- |
| < 100 | < 100 | CC(C(=O)Nc1cc(C2CC(C)(C)C2)no1)c1ccc(-c2nn(C(C)C)c(N)c2C(N)=O)cc1 (single isomer, unassigned; isomer 1) [Example 98, 5-Amino-3-[4-[2-[[3-(3,3-dimethylcyclobutyl)isoxazol-5-yl]amino]-1-methyl-2-oxo-ethyl]phenyl]-1-isopropyl-pyrazole-4-carboxamide, Isomer 1] |
| < 100 | < 100 | CC(C(=O)Nc1cc(C(C)(C)C(C)(F)F)on1)c1ccc(-c2nn(C(C)C)c(N)c2C(N)=O)nc1 (single isomer, unassigned; isomer 2) [Example 70, 5-Amino-3-[5-(1-[[5-(3,3-difluoro-2-methylbutan-2-yl)-1,2-oxazol-3-yl]carbamoyl]ethyl)pyridin-2-yl]-1-isopropylpyrazole-4-carboxamide, Isomer 2] |
| < 100 | < 100 | CC(C(=O)Nc1cc(-c2ccc(Cl)cc2Cl)no1)c1ccc(-c2nn(C(C)C)c(N)c2C(N)=O)cc1 (single isomer, unassigned; isomer 1) [Example 45, 5-Amino-3-[4-(1-[[3-(2,4-dichlorophenyl)-1,2-oxazol-5-yl]carbamoyl]ethyl)phenyl]-1-isopropylpyrazole-4-carboxamide, Isomer 1] |
| < 100 | < 100 | CC(C(=O)Nc1cc(C(C)(C)C(C)(F)F)on1)c1ccc(-c2nn(C(C)C)c(N)c2C(N)=O)cc1 (single isomer, unassigned; isomer 2) [Example 76, 5-Amino-3-[4-(1-[[5-(3,3-difluoro-2-methylbutan-2-yl)-1,2-oxazol-3-yl]carbamoyl]ethyl)phenyl]-1-isopropylpyrazole-4-carboxamide, Isomer 2] |
